Some test systems named below: ACHN renal; BT-549 breast; EKVX NSCLC; HOP-62 NSCLC; NCI-H23 lung; PC-3 prostate; SF-539 CNS; SK-MEL-28 melanoma.
What all share (experiment): NCI anticancer screen, dose series, 48 h

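These data come from cells grown in 96-well plates and exposed to compound for 48 hours at five concentrations. Here, GI50 denotes the concentration required for 50% inhibition of growth. TGI is the concentration that stops growth completely.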

With `S=P(C1CCCCC1)(C1CCCCC1)C(c1cccnc1)N1CCCC1` (configuration not stated), the TGI in the assay on ACHN renal came out at 34.7 µM; with BT-549 breast, 35.6 µM; in the assay on EKVX NSCLC it was 41.7 µM; in the assay on HOP-62 NSCLC, 36.2 µM; in the assay on NCI-H23 lung, 34.6 µM; with PC-3 prostate, 36.9 µM. In addition, the TGI with SF-539 CNS is 35.2 µM; in the assay on SK-MEL-28 melanoma it was above 100 µM.
In the case of `CN(Cc1ccccc1)c1ncnc2ccc(Br)cc12`, the GI50 in the assay with ACHN renal was 12.6 µM; in the assay on HOP-62 NSCLC, 12.6 µM; in the assay on NCI-H23 lung it was 11.3 µM; in the assay with PC-3 prostate, 11.7 µM; in the assay on SK-MEL-28 melanoma, 15.6 µM. The TGI in the assay with ACHN renal came to 28.1 µM; with HOP-62 NSCLC it was 25.9 µM; with NCI-H23 lung, 28.9 µM; in the assay on PC-3 prostate, 33.4 µM; with SK-MEL-28 melanoma, 36.1 µM.
Turning to `O=C(NCCN1CCOCC1)Nc1nc2ccc(Sc3nnc4ccc(-c5ccc(F)cc5)nn34)cc2s1`, the GI50 is above 90.8 µM in the assay on ACHN renal; 2.62 µM in the assay with BT-549 breast; above 20.8 µM in the assay on HOP-62 NSCLC; above 100 µM with NCI-H23 lung; above 100 µM with PC-3 prostate; 2.94 µM in the assay on SF-539 CNS. In addition, the GI50 in the assay with SK-MEL-28 melanoma was 2.59 µM. Besides, the TGI in the assay on ACHN renal is above 100 µM; in the assay with BT-549 breast, above 27.8 µM; in the assay on HOP-62 NSCLC, above 100 µM; with NCI-H23 lung it was above 100 µM; with PC-3 prostate it was above 100 µM; with SF-539 CNS, above 100 µM.
For `COc1ccccc1CN=C1NC(=O)/C(=C/c2ccc3ncccc3c2)S1`, the GI50 with ACHN renal was 7.49 µM; with BT-549 breast, 5.18 µM; in the assay on HOP-62 NSCLC, 7.64 µM; in the assay on NCI-H23 lung, 8.65 µM; in the assay on PC-3 prostate, 18.5 µM; with SF-539 CNS it was 5.28 µM. The GI50 with SK-MEL-28 melanoma was above 15.3 µM. In addition, the TGI with ACHN renal was above 25 µM; in the assay with BT-549 breast, 14 µM; in the assay with HOP-62 NSCLC, above 20.2 µM; in the assay with NCI-H23 lung it was above 25 µM; in the assay on PC-3 prostate, above 25 µM; in the assay with SF-539 CNS it was above 20.3 µM. The molecule further had a TGI with SK-MEL-28 melanoma above 25 µM.
As to `Nc1c(C(=O)c2cccc(C(O)(CO)CO)c2)cnn1-c1ccc(F)cc1`, the GI50 with ACHN renal, in the assay with BT-549 breast, in the assay on HOP-62 NSCLC, with NCI-H23 lung, in the assay with PC-3 prostate and in the assay on SF-539 CNS was above 25 µM each time. In the assay with SK-MEL-28 melanoma, the GI50 was above 25 µM. Besides, the TGI with ACHN renal, in the assay on BT-549 breast, in the assay with HOP-62 NSCLC, in the assay on NCI-H23 lung, with PC-3 prostate and in the assay on SF-539 CNS was above 25 µM throughout. In addition, in the assay on SK-MEL-28 melanoma, the TGI is above 25 µM.
As to `COc1ccc(NC(=O)COc2ccccc2)c(C(N)=O)c1`, the GI50 was 2.98 µM in the assay on ACHN renal; 0.621 µM in the assay with BT-549 breast; 1.07 µM in the assay with HOP-62 NSCLC; 2.61 µM in the assay with NCI-H23 lung; 0.712 µM in the assay on PC-3 prostate; 0.506 µM in the assay on SF-539 CNS. The GI50 in the assay on SK-MEL-28 melanoma was 6.13 µM. Further, the TGI is above 100 µM with ACHN renal; above 100 µM in the assay with BT-549 breast; 43.4 µM in the assay on HOP-62 NSCLC; 35.5 µM in the assay on NCI-H23 lung; above 100 µM in the assay with PC-3 prostate; 4.01 µM in the assay with SF-539 CNS. Besides, the TGI in the assay with SK-MEL-28 melanoma was above 100 µM.
As for `C[C@]12CC/C(=N\O)C[C@@H]1CC[C@@H]1[C@@H]2CC[C@]2(C)/C(=N/O)CC[C@@H]12`, the GI50 in the assay on ACHN renal was 50.1 µM; in the assay on EKVX NSCLC it was 44.6 µM; with NCI-H23 lung it was 45.6 µM; in the assay on PC-3 prostate, 43.7 µM; in the assay on SF-539 CNS, 37.9 µM; with SK-MEL-28 melanoma it was above 100 µM. In addition, the TGI is above 100 µM with ACHN renal; above 100 µM with EKVX NSCLC; 80.2 µM in the assay with NCI-H23 lung; above 100 µM with PC-3 prostate; above 100 µM with SF-539 CNS; above 100 µM with SK-MEL-28 melanoma.
With `COC1=CC(=O)c2c(O)c3c(c(O)c2C1=O)OC1(Oc2c(cc4cc(C)oc(=O)c4c2O)CC1O)C3O` (configuration not stated), the TGI in the assay on ACHN renal is above 100 µM; in the assay with EKVX NSCLC, 57 µM; with HOP-62 NSCLC, above 100 µM; with NCI-H23 lung it was above 100 µM; with PC-3 prostate, above 100 µM; in the assay on SF-539 CNS it was above 100 µM. The molecule further displayed a TGI in the assay on SK-MEL-28 melanoma above 100 µM.
For the molecule `NNC(=O)C(O)C(O)C(O)CO` (configuration not stated), the TGI in the assay with ACHN renal, in the assay with BT-549 breast, in the assay with EKVX NSCLC, in the assay with HOP-62 NSCLC, in the assay on NCI-H23 lung and in the assay with PC-3 prostate was above 100 µM each time. This molecule also showed a TGI in the assay with SK-MEL-28 melanoma above 100 µM.
Consider `CN(C)c1ccc(/C=N/NC(=O)CSc2nc3sc4c(c3c(=O)n2-c2ccccc2)CCCCC4)cc1`, for which the GI50 in the assay on ACHN renal is 5.59 µM; in the assay on BT-549 breast it was 16.1 µM; with EKVX NSCLC, 7.08 µM; in the assay on HOP-62 NSCLC, 3.21 µM; in the assay on NCI-H23 lung, 3.79 µM; with SF-539 CNS it was 4.52 µM. In the assay with SK-MEL-28 melanoma, the GI50 was 4.42 µM. The TGI with ACHN renal was above 100 µM; with BT-549 breast, above 100 µM; with EKVX NSCLC it was above 100 µM; with HOP-62 NSCLC, 20.2 µM; in the assay on NCI-H23 lung, above 100 µM; in the assay with SF-539 CNS, 25.5 µM. For the same molecule, the TGI in the assay on SK-MEL-28 melanoma is above 100 µM.
On to `COc1ccc(-c2cnc(SCC(=O)c3c(C)n(C)n(-c4ccccc4)c3=O)n2-c2ccc(OC)cc2)cc1`, for which the GI50 was above 50 µM with ACHN renal; 29.7 µM with EKVX NSCLC; 28.9 µM in the assay with HOP-62 NSCLC; above 50 µM in the assay with NCI-H23 lung; 40.1 µM with PC-3 prostate; above 50 µM with SF-539 CNS. Further, the GI50 with SK-MEL-28 melanoma is above 50 µM. The TGI in the assay on ACHN renal, in the assay on EKVX NSCLC, in the assay with HOP-62 NSCLC, with NCI-H23 lung, in the assay on PC-3 prostate and with SF-539 CNS was above 50 µM in each case. For the same molecule, the TGI in the assay on SK-MEL-28 melanoma is above 50 µM.

These data come from PubChem BioAssay (NCI).
